Source: patent US9376418B2, “Substituted pyridine spleen tyrosine kinase (SYK) inhibitors” (Merck Sharp & Dohme Corp., priority 2012, dated 2016)

biological target: T1, recombinant human GST-SYK (Homo sapiens, UniProt P43405); test: Homogeneous Time-Resolved Fluorescence (HTRF) assay for the recombinant human Syk enzyme; format: biochemical; settings: HTRF assay, recombinant human GST-SYK; IC50 given as class symbols; read-out: rhSYK Activity
T1 construct: purchased Carna Biosciences 08-176
Method in brief: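 GST-hSYK ([…]) was preincubated with inhibitor (0.1% DMSO) for 10 min at room temperature in Tris-HCl pH 7.5 with tween 20 and DTT. Biotinylated peptide (250 nM), Mg (5 mM) and ATP (25 μM) were added for 45 min. The reaction was quenched with EDTA, and phosphotyrosine was read by Eu-antibody/SA-APC HTRF after 30 min.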

Cc1cc(Nc2nccc(C(F)(F)F)n2)cc(-c2ccc(CC(=O)N(C)C)nc2)c1 [Example 3.2, N,N-dimethyl-2-(5-(3-methyl-5-((4-(trifluoromethyl)pyrimidin-2-yl)amino)phenyl)pyridin-2-yl)acetamide] and Cc1cc(Nc2nccc(C(F)(F)F)n2)cc(-c2ccc(NCC(C)O)nc2)c1 (centres unmarked) [Example 7.40, 1-{[5-(3-methyl-5-{[4-(trifluoromethyl)pyrimidin-2-yl]amino}phenyl)pyridin-2-yl]amino}propan-2-ol] cannot be ordered by IC50: < 100 nM for the first, < 100 nM for the second.

O=C(O)[C@@H]1CCN1c1ccc(-c2cccc(Nc3nccc(C(F)(F)F)n3)c2)cn1 [Example 7.126, (2S)-1-[5-(3-{[4-(trifluoromethyl)pyrimidin-2-yl]amino}phenyl)pyridin-2-yl]azetidine-2-carboxylic acid] and Cc1cc(Nc2nccc(C(F)(F)F)n2)cc(-c2ccc(N3CCCC3C(=O)O)nc2)c1 (racemic) [Example 7.119, 1-[5-(3-methyl-5-{[4-(trifluoromethyl)pyrimidin-2-yl]amino}phenyl)pyridin-2-yl]proline] cannot be ordered by IC50: < 100 nM for the first, < 100 nM for the second.

Cc1cc(Nc2nccc(C(F)(F)F)n2)cc(-c2ccc(NC3(C(=O)O)CCNCC3)nc2)c1 [Example 7.72, 4-{[5-(3-methyl-5-{[4-(trifluoromethyl)pyrimidin-2-yl]amino}phenyl)pyridin-2-yl]amino}piperidine-4-carboxylic acid] and Cc1cc(Nc2nccc(C(F)(F)F)n2)cc(-c2ccc([C@]3(O)CC[C@@](C)(C(=O)O)CC3)nc2)c1 [Example 9.11, cis-4-hydroxy-1-methyl-4-[5-(3-methyl-5-{[4-(trifluoromethyl)pyrimidin-2-yl]amino}phenyl)pyridin-2-yl]cyclohexanecarboxylic acid] cannot be ordered by IC50: < 100 nM for the first, < 100 nM for the second.

Cc1cc(Nc2nccc(C(F)(F)F)n2)cc(-c2ccc(N3CCCC4(CCCNC4=O)C3)nc2)c1 (centres unmarked) [Example 7.9, 8-[5-(3-methyl-5-{[4-(trifluoromethyl)pyrimidin-2-yl]amino}phenyl)pyridin-2-yl]-2,8-diazaspiro[5.5]undecan-1-one] and Cc1cc(Nc2nccc(C(F)(F)F)n2)cc(-c2ccnc(N3CCCC4(CCCO4)C3)c2)c1 (centres unmarked) [Example 15.28, N-{3-methyl-5-[2-(1-oxa-7-azaspiro[4.5]dec-7-yl)pyridin-4-yl]phenyl}-4-(trifluoromethyl)pyrimidin-2-amine] fall in the same range of IC50: 100 to 1000 nM for the first, 100 to 1000 nM for the second.

Cc1cc(Nc2nccc(C(F)(F)F)n2)cc(-c2ccc(N[C@H](C(=O)O)C(C)C)nc2)c1 [Example 7.91, N-[5-(3-methyl-5-{[4-(trifluoromethyl)pyrimidin-2-yl]amino}phenyl)pyridin-2-yl]-L-valine] and Cc1cc(Nc2nccc(C(F)(F)F)n2)cc(-c2ccc(N[C@H](C(=O)O)[C@@H](C)O)nc2)c1 [Example 7.92, N-[5-(3-methyl-5-{[4-(trifluoromethyl)pyrimidin-2-yl]amino}phenyl)pyridin-2-yl]-L-threonine] cannot be ordered by IC50: < 100 nM for the first, < 100 nM for the second.

CNc1ncc(-c2cc(C)cc(Nc3nccc(C(F)(F)F)n3)c2)cc1C(=O)O [Example 2.74, 2-(methylamino)-5-(3-methyl-5-{[4-(trifluoromethyl)pyrimidin-2-yl]amino}phenyl)pyridine-3-carboxylic acid] and Cc1cc(Nc2nccc(C(F)(F)F)n2)cc(-c2cnc(NC(C)(C)C(=O)O)c(C(F)(F)F)c2)c1 [Example 7.123, 2-methyl-N-[5-(3-methyl-5-{[4-(trifluoromethyl)pyrimidin-2-yl]amino}phenyl)-3-(trifluoromethyl)pyridin-2-yl]alanine] cannot be ordered by IC50: < 100 nM for the first, < 100 nM for the second.

Compared with Cc1cc(Nc2nccc(C(F)(F)F)n2)cc(-c2cncc(C(F)(F)F)c2)c1 [Example 2.54, N-{3-methyl-5-[5-(trifluoromethyl)pyridin-3-yl]phenyl}-4-(trifluoromethyl)pyrimidin-2-amine], Cc1cc(Nc2nccc(C(F)(F)F)n2)cc(-c2ccc(NCC(O)C(F)F)nc2)c1 (centres unmarked) [Example 7.17, 1,1-difluoro-3-{[5-(3-methyl-5-{[4-(trifluoromethyl)pyrimidin-2-yl]amino}phenyl)pyridin-2-yl]amino}propan-2-ol] is lower in IC50: 100 to 1000 nM for the first, < 100 nM for the second.

COc1nc(Nc2cc(C)cc(-c3ccc(N[C@H]4CC[C@H](C(=O)O)CC4)nc3)c2)ncc1F [Example 2.121, trans-4-[(5-{3-[(5-fluoro-4-methoxypyrimidin-2-yl)amino]-5-methylphenyl}pyridin-2-yl)amino]cyclohexanecarboxylic acid] and Cc1cc(Nc2ncc(Cl)c(C)n2)cc(-c2ccc(N[C@H]3CC[C@H](C(=O)O)CC3)nc2)c1 [Example 2.119, trans-4-[(5-{3-[(5-chloro-4-methylpyrimidin-2-yl)amino]-5-methylphenyl}pyridin-2-yl)amino]cyclohexanecarboxylic acid] cannot be ordered by IC50: < 100 nM for the first, < 100 nM for the second.

First: Cc1cc(Nc2nccc(C(F)(F)F)n2)cc(-c2ccc(C(C)(O)c3ccc(C(=O)O)cc3)nc2)c1 (centres unmarked) [Example 9.20, 4-{1-hydroxy-1-[5-(3-methyl-5-{[4-(trifluoromethyl)pyrimidin-2-yl]amino}phenyl)pyridin-2-yl]ethyl}benzoic acid]
Second: CC(O)c1ccc(-c2cc(Nc3nccc(C(F)(F)F)n3)cc(C(=O)O)c2)cn1 (centres unmarked) [Example 26.1, 3-[6-(1-Hydroxyethyl)pyridin-3-yl]-5-{[4-(trifluoromethyl)pyrimidin-2-yl]amino}benzoic acid]
The IC50 of the first is lower: < 100 nM for the first, 100 to 1000 nM for the second.

Cc1cc(Nc2nccc(C(F)(F)F)n2)cc(-c2ccc(NCc3ncnn3C)nc2)c1 [Example 7.21, N-[3-methyl-5-(6-{[(1-methyl-1H-1,2,4-triazol-5-yl)methyl]amino}pyridin-3-yl)phenyl]-4-(trifluoromethyl)pyrimidin-2-amine] and Cc1cc(Nc2nccc(C(F)(F)F)n2)cc(-c2ccc(NC(=O)CC#N)nc2)c1 [Example 2.109, 2-cyano-N-[5-(3-methyl-5-{[4-(trifluoromethyl)pyrimidin-2-yl]amino}phenyl)pyridin-2-yl]acetamide] cannot be ordered by IC50: < 100 nM for the first, < 100 nM for the second.

Cc1cc(Nc2nccc(C3CC3)n2)cc(-c2ccc(C(C)(O)[C@H]3CC[C@H](C(=O)O)CC3)nc2)c1 (single isomer, unassigned) [Example 9.19, trans-4-[(1R or 1S)-1-(5-{3-[(4-cyclopropylpyrimidin-2-yl)amino]-5-methylphenyl}pyridin-2-yl)-1-hydroxyethyl]cyclohexanecarboxylic acid] and Cc1cc(Nc2nccc(C(F)(F)F)n2)cc(-c2ccc(N3CCC([C@@H]4CCCC[C@H]4C(=O)O)CC3)nc2)c1 [Example 7.147, (1R,2S)-2-{1-[5-(3-methyl-5-{[4-(trifluoromethyl)pyrimidin-2-yl]amino}phenyl)pyridin-2-yl]piperidin-4-yl}cyclohexanecarboxylic acid] cannot be ordered by IC50: < 100 nM for the first, < 100 nM for the second.

Compared with Cc1cc(Nc2nccc(C(F)(F)F)n2)cc(-c2ccc(C(=O)NC(C)c3ccccn3)nc2)c1 (centres unmarked) [Example 16.22, 5-(3-methyl-5-{[4-(trifluoromethyl)pyrimidin-2-yl]amino}phenyl)-N-(1-pyridin-2-ylethyl)pyridine-2-carboxamide], Cc1cc(Nc2nccc(C(F)(F)F)n2)cc(-c2ccc(C(=O)N3CC[C@H](CO)C3)nc2)c1 [Example 16.43, [(3S)-1-{[5-(3-methyl-5-{[4-(trifluoromethyl)pyrimidin-2-yl]amino}phenyl)pyridin-2-yl]carbonyl}pyrrolidin-3-yl]methanol] is lower in IC50: 100 to 1000 nM for the first, < 100 nM for the second.

Cc1cc(Nc2nccc(C(F)(F)F)n2)cc(-c2ccc(N3CCN(C)CC3)nc2)c1 [Example 7.46, N-{3-methyl-5-[6-(4-methylpiperazin-1-yl)pyridin-3-yl]phenyl}-4-(trifluoromethyl)pyrimidin-2-amine] and Cc1cc(Nc2nccc(C(F)(F)F)n2)cc(-c2ccc(NC(C)(C)c3nc(=O)o[nH]3)nc2)c1 [Example 18.10, 3-(2-{[5-(3-Methyl-5-{[4-(trifluoromethyl)pyrimidin-2-yl]amino}phenyl)pyridin-2-yl]amino}propan-2-yl)-1,2,4-oxadiazol-5(4H)-one] cannot be ordered by IC50: < 100 nM for the first, < 100 nM for the second.

First: COc1ccnc(Nc2cc(C)cc(-c3cncc(CCC(=O)O)c3)c2)n1 [Example 2.84, 3-(5-{3-[(4-methoxypyrimidin-2-yl)amino]-5-methylphenyl}pyridin-3-yl)propanoic acid]
Second: COc1ccnc(Nc2cc(C)cc(-c3ccc(CCC(=O)O)cn3)c2)n1 [Example 2.26, 3-(6-{3-[(4-methoxypyrimidin-2-yl)amino]-5-methylphenyl}pyridin-3-yl)propanoic acid]
The IC50 of the first is lower: < 100 nM for the first, 100 to 1000 nM for the second. The first is the more potent here.

Compared with O=C(O)CCc1ccnc(-c2cccc(Nc3nccc(C(F)(F)F)n3)c2)c1 [Example 2.18, 3-[2-(3-{[4-(trifluoromethyl)pyrimidin-2-yl]amino}phenyl)pyridin-4-yl]propanoic acid], Cc1cc(Nc2nccc(C(F)(F)F)n2)cc(-c2ccnc(C(O)(CO)CO)c2)c1 [Example 9.65, 2-[4-(3-methyl-5-{[4-(trifluoromethyl)pyrimidin-2-yl]amino}phenyl)pyridine-2-yl]propane-1,2,3-triol] is lower in IC50: 100 to 1000 nM for the first, < 100 nM for the second.

Cc1cc(Nc2nccc(C3CC3)n2)cc(-c2ccc(C(C)(O)[C@H]3CC[C@H](C(=O)O)CC3)nc2)c1 (single isomer, unassigned) [Example 9.18, trans-4-[(1R or 1S)-1-(5-{3-[(4-cyclopropylpyrimidin-2-yl)amino]-5-methylphenyl}pyridin-2-yl)-1-hydroxyethyl]cyclohexanecarboxylic acid] and Cc1cc(Nc2nccc(C(F)(F)F)n2)cc(-c2ccnc(NCC3CCC(=O)N3)c2)c1 (centres unmarked) [Example 15.83, 5-({[4-(3-methyl-5-{[4-(trifluoromethyl)pyrimidin-2-yl]amino}phenyl)pyridin-2-yl]amino}methyl)pyrrolidin-2-one] cannot be ordered by IC50: < 100 nM for the first, < 100 nM for the second.
